One series relates to Caco-2 cells. The following applies: 4 h, 37 °C.
The nature of the next series: in vitro. The following applies: human, Caco-2.
A further series has as its system Caco-2 cell monolayer. The following applies: Caco-2 monolayer, apical pH 6.0 / basolateral pH 7.4, 4 h, without verapamil as inhibitor.
The next series in a line: physchem. The settings on record: Recovery under stability condition. How it is done: These tests included assessing short-term stability at room temperature, long-term stability during storage at −20 °C for up to 45 days, and stability across three freeze-thaw cycles. Additionally, the stability of the analytes was tested in the media used for intestinal permeability assays, specifically HBSS with MES and HEPES buffers at pH 6.0 and 7.4.

Where two headings read alike, the source gives them in different places.

The efflux ratio is a quotient of directional permeabilities that is used to spot active efflux.

With `CC(C)NCC(O)COc1ccc(CC(N)=O)cc1` (stereo not drawn) [Atenolol, atenolol], the “Cytotoxicity (LDH release)” value in the series on Caco-2 cells (50 µM) is listed as “did not induce cytotoxicity”.
For the molecule `CC(C)NCC(O)COc1cccc2ccccc12` (stereo not drawn) [Propranolol, propranolol], the efflux ratio in “in vitro” is about 1. Moreover, in the series on Caco-2 cell monolayer, the “Apparent permeability (Papp) A→B” value is listed as “high” and the “Apparent permeability (Papp) B→A” value is recorded as “high”. In the series “physchem”, the recovery is 86.5 ± 21% and the recovery at 36 d was 87.7 ± 5.12%. Further, in the series on Caco-2 cells (5 µM), the “Cytotoxicity (LDH release)” value is “did not induce cytotoxicity”.
As to `C=C[C@H]1C[N@@]2CC[C@H]1C[C@@H]2[C@@H](O)c1ccnc2ccc(OC)cc12` [Quinidine, quinidine], in “physchem”, the recovery amounted to 87.5 ± 6.3% and the recovery at 36 d came to 86.2 ± 1.2%.
